Assays:
CYPs = settings: earlier pharmacokinetic studies; cited from earlier work
[1] = earlier pharmacokinetic studies; cited from earlier work
PAMPA-BBB assay = settings: in-house conditions; 17 h, 200 μM, 25 °C, triplicate

| Structure (SMILES) | CYPs inhibition (CYPs) | human microsome metabolism [1] | Determined Pe (PAMPA-BBB assay) |
| --- | --- | --- | --- |
| CNCCCc1cncc(CCc2cc(C)cc(N)n2)c1 [Compound 6] | very poor | little | – |
| CNCc1cccc(-c2cncc(CCc3cc(C)cc(N)n3)c2)c1 [Compound 16, 4-Methyl-6-(2-(5-(3-((methylamino)methyl)phenyl)pyridin-3-yl)ethyl)pyridin-2-amine] | – | – | 5.56 10^−6 cm s^−1 |
| CNCc1cccc(-c2cc(F)cc(CCc3cc(C)cc(N)n3)c2)c1 [Compound 18, 6-(2-(5-Fluoro-3′-((methylamino)methyl)-[1,1′-biphenyl]-3-yl)ethyl)-4-methylpyridin-2-amine] | – | – | 17.41 10^−6 cm s^−1 |
| CNCCCN1c2ccccc2CCc2ccccc21 [Desipramine] | – | – | 20.52 ± 0.64 10^−6 cm s^−1 |
| Cn1c(=O)c2[nH]cnc2n(C)c1=O.O [Theophylline] | – | – | 0.15 ± 0.04 10^−6 cm s^−1 |
